Measurements from patent publication US10206937B2, “Boronic acid derivatives and therapeutic uses thereof” (Qpex Biopharma, Inc., priority 2014, dated 2019).

System: strains of Enterobacteriaceae producing various carbapenemases (class A, D and B; 104 strains)
Assay: Antibiotics potentiation by Compound 27 (MIC; meropenem, doripenem, ertapenem, cefepime)
Format: cell-based
Settings: + 27 = with Compound 27 at fixed 4 μg/ml

Question: `C[C@@H](O)[C@H]1C(=O)N2C(C(=O)O)=C(S[C@@H]3CN[C@H](C(=O)Nc4cccc(C(=O)O)c4)C3)[C@H](C)[C@H]12` [E] was tested. Which MIC (strain KP1081 Klebsiella pneumoniae (NDM-1, TEM-1, SHV-11, CMY-6, CTX-M-15)) did it give?
Answer: Its MIC is “Z (MIC of greater than 10 μg/mL)”.

Question: And the MIC (strain KP1082 Klebsiella pneumoniae (KPC-2, SHV-1))?
Answer: Its MIC is “Z (MIC of greater than 10 μg/mL)”.

Question: And the MIC (strain KP1083 Klebsiella pneumoniae (KPC-3, SHV-1, TEM-1))?
Answer: Its MIC is “Z (MIC of greater than 10 μg/mL)”.

Question: What about the MIC (strain KP1084 Klebsiella pneumoniae (KPC-3, SHV-11, TEM-1)) of the same molecule?
Answer: Its MIC is “Z (MIC of greater than 10 μg/mL)”.

Question: And the MIC (strain KP1086 Klebsiella pneumoniae (OXA-48, CTX-M-15, TEM, SHV))?
Answer: Its MIC is “Z (MIC of greater than 10 μg/mL)”.

Question: What about the MIC (strain KP1087 Klebsiella pneumoniae (KPC-2, CTX-M-15, SHV-11, TEM-1)) of the same molecule?
Answer: The MIC was “Z (MIC of greater than 10 μg/mL)”.

Question: And the MIC (strain KP1088 Klebsiella pneumoniae (KPC-3, SHV-11, TEM-1))?
Answer: The MIC was “Z (MIC of greater than 10 μg/mL)”.

Question: What about the MIC (strain KP1089 Klebsiella pneumonias (OXA-181, CTX-M-15, TEM, SHV)) of the same molecule?
Answer: Its MIC is “Z (MIC of greater than 10 μg/mL)”.

Question: What about the MIC (strain KP1095 Klebsiella pneumoniae (KPC-2 TEM-1 SHV-1)) of the same molecule?
Answer: Its MIC is “Y (MIC of 1 μg/mL to 10 μg/mL)”.

Question: What about the MIC (strain KP1096 Klebsiella pneumoniae (KPC-2 TEM-181 SHV-11)) of the same molecule?
Answer: Its MIC is “Z (MIC of greater than 10 μg/mL)”.

Question: And the MIC (strain KP1097 Klebsiella pneumonias (IMP-1))?
Answer: The MIC was “Z (MIC of greater than 10 μg/mL)”.

Question: What about the MIC (strain KP1098 Klebsiella pneumoniae (IMP-26)) of the same molecule?
Answer: Its MIC is “Z (MIC of greater than 10 μg/mL)”.

Question: What about the MIC (strain KP1104 Klebsiella pneumoniae (KPC TEM)) of the same molecule?
Answer: Its MIC is “Z (MIC of greater than 10 μg/mL)”.

Question: And the MIC (strain KP1105 Klebsiella pneumoniae (KPC TEM SHV))?
Answer: The MIC was “Z (MIC of greater than 10 μg/mL)”.

Question: And the MIC (strain KP1159 Klebsiella pneumoniae (SHV-1(2b); CTX-M-15; IMP-4))?
Answer: The MIC was “Z (MIC of greater than 10 μg/mL)”.

Question: And the MIC (strain KP1160 Klebsiella pneumoniae (SHV-28(2be); CTX-M-15; IMP-26))?
Answer: Its MIC is “Z (MIC of greater than 10 μg/mL)”.

Question: What about the MIC (strain KP1161 Klebsiella pneumoniae (NDM-1)) of the same molecule?
Answer: The MIC was “Z (MIC of greater than 10 μg/mL)”.

Question: What about the MIC (strain KP1164 Klebsiella pneumoniae (SHV-12(2be); VIM-1)) of the same molecule?
Answer: The MIC was “Z (MIC of greater than 10 μg/mL)”.

Question: And the MIC (strain KP1165 Klebsiella pneumoniae (SHV-11(2b); CTX-M-15; VIM-27))?
Answer: The MIC was “Z (MIC of greater than 10 μg/mL)”.

Question: And the MIC (strain KP1166 Klebsiella pneumoniae (SHV-5(2be); VIM-26))?
Answer: Its MIC is “Z (MIC of greater than 10 μg/mL)”.

Question: And the MIC (strain KP1167 Klebsiella pneumoniae (SHV-12(2be); VIM-1))?
Answer: Its MIC is “Y (MIC of 1 μg/mL to 10 μg/mL)”.

Question: What about the MIC (strain KP1169 Klebsiella pneumoniae (SHV-11(2b); VIM-1)) of the same molecule?
Answer: The MIC was “Y (MIC of 1 μg/mL to 10 μg/mL)”.

Question: What about the MIC (strain KP1170 Klebsiella pneumoniae (SHV-11(2b); CTX-M-15; NDM-1)) of the same molecule?
Answer: The MIC was “Z (MIC of greater than 10 μg/mL)”.

Question: And the MIC (strain KP1172 Klebsiella pneumoniae (SHV-31(2be); DHA-1; VIM-1))?
Answer: Its MIC is “Y (MIC of 1 μg/mL to 10 μg/mL)”.

Question: And the MIC (strain KP1173 Klebsiella pneumoniae (TEM-33(2br); CTX-M-15; IMP-1))?
Answer: The MIC was “Y (MIC of 1 μg/mL to 10 μg/mL)”.

Question: What about the MIC (strain KP1174 Klebsiella pneumoniae (CTX-M-14; IMP-1)) of the same molecule?
Answer: Its MIC is “Z (MIC of greater than 10 μg/mL)”.

Question: And the MIC (strain KP1175 Klebsiella pneumoniae (SHV-OSBL(2b); VIM-1))?
Answer: Its MIC is “Z (MIC of greater than 10 μg/mL)”.

Question: And the MIC (strain KP1177 Klebsiella pneumoniae (SHV-OSBL(2b), TEM-OSBL(2b); CTX-M-15; NDM-1))?
Answer: The MIC was “Z (MIC of greater than 10 μg/mL)”.

Question: What about the MIC (strain KP1178 Klebsiella pneumoniae (SHV-OSBL(2b;) TEM-OSBL(2b); CTX-M-15; NDM-1)) of the same molecule?
Answer: The MIC was “Z (MIC of greater than 10 μg/mL)”.

Question: And the MIC (strain KP1179 Klebsiella pneumoniae (SHV-12(2be), TEM-OSBL(2b); CTX-M-15; NDM-7))?
Answer: The MIC was “Z (MIC of greater than 10 μg/mL)”.

Question: What about the MIC (strain KP1180 Klebsiella pneumoniae (SHV-OSBL(2b), TEM-OSBL(2b); CTX-M-15; DHA-1; IMP-26)) of the same molecule?
Answer: Its MIC is “Y (MIC of 1 μg/mL to 10 μg/mL)”.

Question: And the MIC (strain KP1181 Klebsiella pneumoniae (SHV-OSBL(2b); CTX-M-15; IMP-26))?
Answer: Its MIC is “Y (MIC of 1 μg/mL to 10 μg/mL)”.

Question: And the MIC (strain KP1183 Klebsiella pneumoniae (SHV-OSBL(2b), TEM-OSBL(2b); CTX-M-15; NDM-1))?
Answer: The MIC was “Z (MIC of greater than 10 μg/mL)”.

Question: What about the MIC (strain KP1184 Klebsiella pneumoniae (SHV-OSBL(2b); IMP-1)) of the same molecule?
Answer: The MIC was “Y (MIC of 1 μg/mL to 10 μg/mL)”.

Question: What about the MIC (strain KP1185 Klebsiella pneumoniae (SHV-OSBL(2b), TEM-OSBL(2b); IMP-4)) of the same molecule?
Answer: Its MIC is “Z (MIC of greater than 10 μg/mL)”.

Question: What about the MIC (strain KP1186 Klebsiella pneumoniae (CTX-M-15; NDM-1)) of the same molecule?
Answer: The MIC was “Z (MIC of greater than 10 μg/mL)”.

Question: And the MIC (strain KP1187 Klebsiella pneumoniae (SHV-55(2be), TEM-OSBL(2b); CTX-M-15; NDM-1))?
Answer: The MIC was “Z (MIC of greater than 10 μg/mL)”.

Question: What about the MIC (strain KP1188 Klebsiella pneumoniae (SHV-OSBL(2b); CTX-M-15; NDM-1)) of the same molecule?
Answer: Its MIC is “Z (MIC of greater than 10 μg/mL)”.

Question: And the MIC (strain KP1189 Klebsiella pneumoniae (TEM-OSBL(2b); CTX-M-15; CTX-M-27; NDM-1))?
Answer: Its MIC is “Z (MIC of greater than 10 μg/mL)”.

Question: What about the MIC (strain KPM1123 Klebsiella pneumoniae (KPC-2 TEM SHV)) of the same molecule?
Answer: The MIC was “Z (MIC of greater than 10 μg/mL)”.

Question: And the MIC (strain KPM1202 Klebsiella pneumoniae (KPC SHV TEM))?
Answer: Its MIC is “Z (MIC of greater than 10 μg/mL)”.

Question: And the MIC (strain KPM1203 Klebsiella pneumoniae (KPC SHV TEM))?
Answer: Its MIC is “Y (MIC of 1 μg/mL to 10 μg/mL)”.

Question: What about the MIC (strain KPM1344 Klebsiella pneumoniae (VIM-1)) of the same molecule?
Answer: The MIC was “Y (MIC of 1 μg/mL to 10 μg/mL)”.

Question: What about the MIC (strain KPM1345 Klebsiella pneumoniae (VIM-1 SHV)) of the same molecule?
Answer: Its MIC is “Y (MIC of 1 μg/mL to 10 μg/mL)”.

Question: What about the MIC (strain KPM1347 Klebsiella pneumoniae (NDM-1 SHV CTX-M-15)) of the same molecule?
Answer: The MIC was “Z (MIC of greater than 10 μg/mL)”.

Question: What about the MIC (strain KX1017 Klebsiella oxytoca (KPC-2, OXA-2, SHV-30)) of the same molecule?
Answer: Its MIC is “Z (MIC of greater than 10 μg/mL)”.

Question: What about the MIC (strain KX1018 Klebsiella oxytoca (KPC-2, SHV-40, OXY-1)) of the same molecule?
Answer: The MIC was “Y (MIC of 1 μg/mL to 10 μg/mL)”.

Question: And the MIC (strain KX1019 Klebsiella oxytoca (KPC-2, OXA-2))?
Answer: Its MIC is “Z (MIC of greater than 10 μg/mL)”.

Question: And the MIC (strain PM1024 Proteus mirabilis (TEM-1(2b); CMY-16; VIM-1))?
Answer: Its MIC is “Y (MIC of 1 μg/mL to 10 μg/mL)”.

Question: And the MIC (strain PM1026 Proteus mirabilis (DHA-1; IMP-26))?
Answer: The MIC was “Y (MIC of 1 μg/mL to 10 μg/mL)”.

Question: And the MIC (strain PM1027 Proteus mirabilis (VIM-5))?
Answer: Its MIC is “Z (MIC of greater than 10 μg/mL)”.

Question: What about the MIC (strain SM1023 Serratia marcescens (VIM-4)) of the same molecule?
Answer: Its MIC is “Z (MIC of greater than 10 μg/mL)”.
